Organism: Rattus norvegicus
Experiment: DrugMatrix - Regimen: Daily Repeat
Type: toxicity, organism-based, Sprague-Dawley
Design: regimen Daily Repeat, gender Male, age 6-8 weeks
Conditions: in vivo, po, route oral GAVAGE, […]; for ABSOLUTE BASOPHIL / ABSOLUTE EOSINOPHIL / ABSOLUTE LYMPHOCYTE / ABSOLUTE SEGMENTED NEUTROPHIL / BASOPHIL / EOSINOPHIL / ERYTHROCYTE COUNT / HEMATOCRIT / HEMOGLOBIN / LEUKOCYTE COUNT / LYMPHOCYTE / MEAN CORPUSCULAR HEMOGLOBIN / MEAN CORPUSCULAR HEMOGLOBIN CONCENTRATION / MEAN CORPUSCULAR VOLUME / MONOCYTE / NEUTROPHIL / NUCLEATED RED BLOOD CELLS / PLATELET COUNT: tissue Blood; for ALANINE AMINOTRANSFERASE / ALBUMIN / ALKALINE PHOSPHATASE / ASPARTATE AMINOTRANSFERASE / BLOOD UREA NITROGEN / CARBON DIOXIDE / CHLORIDE / CHOLESTEROL / CREATINE PHOSPHOKINASE / CREATININE / GLUCOSE / LACTATE DEHYDROGENASE / LIPASE / PHOSPHORUS / POTASSIUM / SODIUM / TOTAL BILIRUBIN / TOTAL PROTEIN / URIC ACID: tissue Plasma
[1] = 0 mg/kg, 72 h, dose level Control, time 3 day
[2] = 0 mg/kg, 120 h, dose level Control, time 5 day
[3] = 15 mg/kg, 72 h, dose level Low, time 3 day

Structure (SMILES): CCC(C)(C)C(=O)O[C@H]1C[C@@H](C)C=C2C=C[C@H](C)[C@H](CC[C@@H]3C[C@@H](O)CC(=O)O3)[C@H]21 [SIMVASTATIN]
- ABSOLUTE BASOPHIL [1]: 0 CELLS/uL
- ABSOLUTE EOSINOPHIL [1]: 14 CELLS/uL
- ABSOLUTE LYMPHOCYTE [1]: 11144.67 CELLS/uL
- ABSOLUTE SEGMENTED NEUTROPHIL [1]: 535.5 CELLS/uL
- BASOPHIL [1]: 0%
- EOSINOPHIL [1]: 0.17%
- ERYTHROCYTE COUNT [1]: 5.08 x10E6/uL
- HEMATOCRIT [1]: 32.32%
- HEMOGLOBIN [1]: 12.87 G/DL
- LEUKOCYTE COUNT [1]: 11.72 x10E3/uL
- LYMPHOCYTE [1]: 94.67%
- MEAN CORPUSCULAR HEMOGLOBIN [1]: 25.37 pg
- MEAN CORPUSCULAR HEMOGLOBIN CONCENTRATION [1]: 39.85 G/DL
- MEAN CORPUSCULAR VOLUME [1]: 63.58 fL
- MONOCYTE [1]: 0.17%
- NEUTROPHIL [1]: 5%
- NUCLEATED RED BLOOD CELLS [1]: 0 /100WBC
- PLATELET COUNT [1]: 1084 x10E3/uL
- ALANINE AMINOTRANSFERASE [1]: 67.5 u/L
- ALBUMIN [1]: 4.02 G/DL
- ALKALINE PHOSPHATASE [1]: 374.17 u/L
- ASPARTATE AMINOTRANSFERASE [1]: 83.5 u/L
- BLOOD UREA NITROGEN [1]: 14.5 mg/dL
- CARBON DIOXIDE [1]: 30 mmol/L
- CHLORIDE [1]: 100.5 MEQ/L
- CHOLESTEROL [1]: 71.33 mg/dL
- CREATINE PHOSPHOKINASE [1]: 268.33 u/L
- CREATININE [1]: 0.16 mg/dL
- GLUCOSE [1]: 170.5 mg/dL
- LACTATE DEHYDROGENASE [1]: 81.17 u/L
- LIPASE [1]: 16.67 u/L
- PHOSPHORUS [1]: 10.07 mg/dL
- POTASSIUM [1]: 5.03 MEQ/L
- SODIUM [1]: 142.92 MEQ/L
- TOTAL BILIRUBIN [1]: 0.17 mg/dL
- TOTAL PROTEIN [1]: 5.63 G/DL
- URIC ACID [1]: 0.5 mg/dL
- ABSOLUTE BASOPHIL [2]: 0 CELLS/uL
- ABSOLUTE EOSINOPHIL [2]: 37.5 CELLS/uL
- ABSOLUTE LYMPHOCYTE [2]: 8049.5 CELLS/uL
- ABSOLUTE SEGMENTED NEUTROPHIL [2]: 646.83 CELLS/uL
- BASOPHIL [2]: 0%
- EOSINOPHIL [2]: 0.5%
- ERYTHROCYTE COUNT [2]: 5.36 x10E6/uL
- HEMATOCRIT [2]: 33.9%
- HEMOGLOBIN [2]: 13.02 G/DL
- LEUKOCYTE COUNT [2]: 8.82 x10E3/uL
- LYMPHOCYTE [2]: 90.17%
- MEAN CORPUSCULAR HEMOGLOBIN [2]: 24.32 pg
- MEAN CORPUSCULAR HEMOGLOBIN CONCENTRATION [2]: 38.42 G/DL
- MEAN CORPUSCULAR VOLUME [2]: 63.32 fL
- MONOCYTE [2]: 1.17%
- NEUTROPHIL [2]: 8.17%
- NUCLEATED RED BLOOD CELLS [2]: 0.17 /100WBC
- PLATELET COUNT [2]: 1231.5 x10E3/uL
- ALANINE AMINOTRANSFERASE [2]: 62 u/L
- ALBUMIN [2]: 3.97 G/DL
- ALKALINE PHOSPHATASE [2]: 303.67 u/L
- ASPARTATE AMINOTRANSFERASE [2]: 84.5 u/L
- BLOOD UREA NITROGEN [2]: 14.83 mg/dL
- CARBON DIOXIDE [2]: 31.83 mmol/L
- CHLORIDE [2]: 97 MEQ/L
- CHOLESTEROL [2]: 68.83 mg/dL
- CREATINE PHOSPHOKINASE [2]: 411.33 u/L
- CREATININE [2]: 0.16 mg/dL
- GLUCOSE [2]: 170.17 mg/dL
- LACTATE DEHYDROGENASE [2]: 88.5 u/L
- LIPASE [2]: 9.5 u/L
- PHOSPHORUS [2]: 9.98 mg/dL
- POTASSIUM [2]: 5.72 MEQ/L
- SODIUM [2]: 141.62 MEQ/L
- TOTAL BILIRUBIN [2]: 0.1 mg/dL
- TOTAL PROTEIN [2]: 5.67 G/DL
- URIC ACID [2]: 0.52 mg/dL
- ABSOLUTE BASOPHIL [3]: 0 CELLS/uL
- ABSOLUTE EOSINOPHIL [3]: 0 CELLS/uL
- ABSOLUTE LYMPHOCYTE [3]: 9235.67 CELLS/uL
- ABSOLUTE SEGMENTED NEUTROPHIL [3]: 962.33 CELLS/uL
- BASOPHIL [3]: 0%
- EOSINOPHIL [3]: 0%
- ERYTHROCYTE COUNT [3]: 5.23 x10E6/uL
- HEMATOCRIT [3]: 32.6%
- HEMOGLOBIN [3]: 12.9 G/DL
- LEUKOCYTE COUNT [3]: 10.33 x10E3/uL
- LYMPHOCYTE [3]: 89.33%
- MEAN CORPUSCULAR HEMOGLOBIN [3]: 24.7 pg
- MEAN CORPUSCULAR HEMOGLOBIN CONCENTRATION [3]: 39.57 G/DL
- MEAN CORPUSCULAR VOLUME [3]: 62.4 fL
- MONOCYTE [3]: 1.33%
- NEUTROPHIL [3]: 9.33%
- NUCLEATED RED BLOOD CELLS [3]: 0 /100WBC
- PLATELET COUNT [3]: 1186.33 x10E3/uL
- ALANINE AMINOTRANSFERASE [3]: 75 u/L
- ALBUMIN [3]: 4.07 G/DL
- ALKALINE PHOSPHATASE [3]: 310.67 u/L
- ASPARTATE AMINOTRANSFERASE [3]: 85.33 u/L
- BLOOD UREA NITROGEN [3]: 14 mg/dL
- CARBON DIOXIDE [3]: 29.33 mmol/L
- CHLORIDE [3]: 103 MEQ/L
- CHOLESTEROL [3]: 68.67 mg/dL
- CREATINE PHOSPHOKINASE [3]: 229.33 u/L
- CREATININE [3]: 0.12 mg/dL
- GLUCOSE [3]: 170.33 mg/dL
- LACTATE DEHYDROGENASE [3]: 76.33 u/L
- LIPASE [3]: 10 u/L
- PHOSPHORUS [3]: 9.87 mg/dL
- POTASSIUM [3]: 5.16 MEQ/L
- SODIUM [3]: 146.93 MEQ/L
- TOTAL BILIRUBIN [3]: 0.13 mg/dL
- TOTAL PROTEIN [3]: 5.67 G/DL
- URIC ACID [3]: 0.77 mg/dL

— ChEMBL document CHEMBL3885881, “DrugMatrix”
